Results taken from patent US20250230147A1, “LACTAMS AS CBL-B INHIBITORS” (Genentech, Inc., priority 2021, published 2025).
Counter-ions that a name gives are not always drawn.

What was measured:
Cbl-b = Cbl-b (Homo sapiens (Human), UniProt Q13191); experiment: Cbl-b LCK Ub TR-FRET assay (Cbl-b Lck HTRF); type: biochemical
In short: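 TR-FRET (340 nm excitation, 615/665 nm emission) read after adding HA-ubiquitin–UBE2D2 thioester, anti-HA-D2 and streptavidin-Eu. Beforehand, compounds incubated 60 min with biotinylated Cbl-b, then 90 min with His-LCK and ATP (1 mM in 2× mix); IC50 from 10 concentrations, DMSO high and no-LCK low controls.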

c-Cbl = c-Cbl (Homo sapiens (Human), UniProt P22681); experiment: C-Cbl LCK Ub TR-FRET assay (c-cbl Lck HTRF); type: biochemical; settings: for (fold-selectivity): C-cbl Lck HTRF IC50 relative to Cbl-b Lck HTRF IC50
In short: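 Signal is read once the detection mix has stood 20 min at ambient temperature. Curves are anchored by DMSO as maximum and by omission of LCK as minimum.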

Chain of c-Cbl (P22681 47-435): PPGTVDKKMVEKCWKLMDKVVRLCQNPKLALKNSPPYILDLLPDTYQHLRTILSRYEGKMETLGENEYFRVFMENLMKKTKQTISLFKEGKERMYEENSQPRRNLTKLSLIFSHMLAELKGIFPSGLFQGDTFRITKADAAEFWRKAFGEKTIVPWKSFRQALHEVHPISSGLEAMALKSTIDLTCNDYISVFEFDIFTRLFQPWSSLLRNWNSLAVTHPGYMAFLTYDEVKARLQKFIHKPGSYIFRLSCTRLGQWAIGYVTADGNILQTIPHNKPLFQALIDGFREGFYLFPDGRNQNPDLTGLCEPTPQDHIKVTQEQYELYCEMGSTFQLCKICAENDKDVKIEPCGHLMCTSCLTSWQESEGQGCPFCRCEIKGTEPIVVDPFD
Chain of Cbl-b (Q13191 40-426): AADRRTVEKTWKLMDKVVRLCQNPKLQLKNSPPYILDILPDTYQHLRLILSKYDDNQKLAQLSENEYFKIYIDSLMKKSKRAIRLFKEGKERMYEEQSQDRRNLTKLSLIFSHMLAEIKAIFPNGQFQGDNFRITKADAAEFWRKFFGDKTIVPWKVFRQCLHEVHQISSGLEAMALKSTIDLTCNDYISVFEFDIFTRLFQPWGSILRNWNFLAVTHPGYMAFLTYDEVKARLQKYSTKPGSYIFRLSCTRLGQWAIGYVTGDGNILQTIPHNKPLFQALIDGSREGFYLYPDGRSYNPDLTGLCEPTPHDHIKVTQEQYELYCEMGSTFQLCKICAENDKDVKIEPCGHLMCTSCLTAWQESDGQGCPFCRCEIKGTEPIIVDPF

| SMILES | IC50 (Cbl-b) [µM] | IC50 (c-Cbl) [µM] | (fold-selectivity) (c-Cbl) |
| --- | --- | --- | --- |
| Cn1cnnc1CC1(c2cccc(N3Cc4c(cc(OCc5c[nH]cn5)cc4C(F)(F)F)C3=O)c2)CC(F)(F)C1 [Compound 422, 6-((1H-imidazol-4-yl)methoxy)-2-(3-(3,3-difluoro-1-((4-methyl-4H-1,2,4-triazol-3-yl)methyl)cyclobutyl)phenyl)-4-(trifluoromethyl)isoindolin-1-one] | 0.016 | 0.017 | (1.1x) |
| Cn1cnnc1[C@@H](F)C1(c2cccc(N3Cc4c(cc(CN5CCOCC5)cc4C(F)(F)F)C3=O)c2)COC1 [Compound 89, (S)-2-(3-(3-(fluoro(4-methyl-4H-1,2,4-triazol-3-yl)methyl)oxetan-3-yl)phenyl)-6-(morpholinomethyl)-4-(trifluoromethyl)isoindolin-1-one] | 0.31 | 0.72 | 2.3x |
| CCOc1cc(C2(Cc3nncn3C)COC2)cc(N2Cc3c(cc(CNC4(C)CCC4)cc3C(F)(F)F)C2=O)n1 [Compound 304, 2-(6-ethoxy-4-(3-((4-methyl-4H-1,2,4-triazol-3-yl)methyl)oxetan-3-yl)pyridin-2-yl)-6-(((1-methylcyclobutyl)amino)methyl)-4-(trifluoromethyl)isoindolin-1-one] | 0.011 | 0.0079 | (0.73x) |
| Cn1cnnc1[C@@H](F)C1(c2cccc(N3Cc4c(cc(CN5CC(CCO)C5)cc4C(F)(F)F)C3=O)c2)COC1 [Compound 178, (S)-2-(3-(3-(fluoro(4-methyl-4H-1,2,4-triazol-3-yl)methyl)oxetan-3-yl)phenyl)-6-((3-(2-hydroxyethyl)azetidin-1-yl)methyl)-4-(trifluoromethyl)isoindolin-1-one] | 0.17 | 0.35 | 2.0x |
| Cn1cnnc1CC(F)(F)c1cccc(N2Cc3c(cccc3C(F)(F)F)C2=O)c1 [Compound 15, 2-(3-(1,1-difluoro-2-(4-methyl-4H-1,2,4-triazol-3-yl)ethyl)phenyl)-4-(trifluoromethyl)isoindolin-1-one] | 3.5 | 6.4 | 1.8x |
| CC1CCN(CCNc2cc(C3(Cc4nncn4C)CCC3)cc(N3Cc4c(cc(CNC5(C)CCC5)cc4C(F)(F)F)C3=O)n2)CC1 [Compound 309, 2-(4-(1-((4-methyl-4H-1,2,4-triazol-3-yl)methyl)cyclobutyl)-6-((2-(4-methylpiperidin-1-yl)ethyl)amino)pyridin-2-yl)-6-(((1-methylcyclobutyl)amino)methyl)-4-(trifluoromethyl)isoindolin-1-one formate] | 0.54 | 0.52 |  |
| CC(C)[C@H]1CN(C)CCN1Cc1cc2c(c(C(F)(F)F)c1)CN(c1cccc(C3([C@H](F)c4nncn4C)CC(F)(F)C3)c1)C2=O [Compound 190, 2-(3-(3,3-difluoro-1-((S)-fluoro(4-methyl-4H-1,2,4-triazol-3-yl)methyl)cyclobutyl)phenyl)-6-(((S)-2-isopropyl-4-methylpiperazin-1-yl)methyl)-4-(trifluoromethyl)isoindolin-1-one] | 0.047 | 0.038 | 0.82x |
| CC1CN(Cc2cc3c(c(C(F)(F)F)c2)CN(c2cccc(C4([C@H](F)c5nncn5C)COC4)c2)C3=O)CCCO1 (stereo partly drawn) [Compound 120, 2-(3-(3-((S)-fluoro(4-methyl-4H-1,2,4-triazol-3-yl)methyl)oxetan-3-yl)phenyl)-6-((2-methyl-1,4-oxazepan-4-yl)methyl)-4-(trifluoromethyl)isoindolin-1-one] | 0.036 | 0.044 | 1.2x |
| CN1CCN(Cc2cc3c(c(C(F)(F)F)c2)CN(c2cccc(C4(Cc5nncn5C)CC(F)(F)C4)c2)C3=O)[C@@H](C2CC2)C1 [Compound 402, (S)-6-((2-cyclopropyl-4-methylpiperazin-1-yl)methyl)-2-(3-(3,3-difluoro-1-((4-methyl-4H-1,2,4-triazol-3-yl)methyl)cyclobutyl)phenyl)-4-(trifluoromethyl)isoindolin-1-one] | 0.039 | 0.046 | (1.2x) |
| CC(C)[C@@H]1CNCCN1Cc1cc2c(c(C(F)(F)F)c1)CN(c1cccc(C3([C@@H](F)c4nncn4C)COC3)c1)C2=O [Compound 94, 2-(3-(3((R)-fluoro(4-methyl-4H-1,2,4-triazol-3-yl)methyl)oxetan-3-yl)phenyl)-6-(((R)-2-isopropylpiperazin-1-yl)methyl)-4-(trifluoromethyl)isoindolin-1-one] | 0.18 | 0.2 | 1.1x |
| Cn1cnnc1[C@@H](F)C1(c2cccc(N3Cc4c(cc(CN5CC(S(C)(=O)=O)C5)cc4C(F)(F)F)C3=O)c2)COC1 [Compound 164, (S)-2-(3-(3-(fluoro(4-methyl-4H-1,2,4-triazol-3-yl)methyl)oxetan-3-yl)phenyl)-6-((3-(methylsulfonyl)azetidin-1-yl)methyl)-4-(trifluoromethyl)isoindolin-1-one] | 0.35 | 0.64 | 1.8x |
| CC(C)[C@H]1CN(C)CCN1Cc1cc2c(c(C(F)(F)F)c1)CN(c1cc(C3([C@@H](F)c4nncn4C)CCC3)cc(NCC3CC3)n1)C2=O [Compound 278, 2-(6-((cyclopropylmethyl)amino)-4-(1-((R)-fluoro(4-methy-4H-1,2,4-triazol-3-yl)methyl)cyclobutyl)pyridin-2-yl)-6-(((S)-2-isopropyl-4-methylpiperazin-1-yl)methyl)-4-(trifluoromethyl)isoindolin-1-one] | 0.012 | 0.015 | (1.2x) |
| Cn1cnnc1[C@H](F)C1(c2cccc(N3Cc4c(cc(CN5CCC6(CC6)C5)cc4C(F)(F)F)C3=O)c2)CC1 [Compound 27, (R)-6-(5-azaspiro[2.4]heptan-5-ylmethyl)-2-(3-(1-(fluoro(4-methyl-4H-1,2,4-triazol-3-yl)methyl)cyclopropyl)phenyl)-4-(trifluoromethyl)isoindolin-1-one] | 0.039 | 0.061 |  |
| CC(=O)NCCCCNc1cc(C2(Cc3nncn3C)CCC2)cc(N2Cc3c(cc(CNC4(C)CCC4)cc3C(F)(F)F)C2=O)n1 [Compound 314, N-(4-((4-(1-((4-methyl-4H-1,2,4-triazol-3-yl)methyl)cyclobutyl)-6-(6-(((1-methylcyclobutyl)amino)methyl)-1-oxo-4-(trifluoromethyl)isoindolin-2-yl)pyridin-2-yl)amino)butyl)acetamide formate] | 0.027 | 0.031 |  |
| Cl.Cn1cnnc1CC1(c2cc(NCc3ccncc3)nc(N3Cc4c(cc(CNC5(C)CCC5)cc4C(F)(F)F)C3=O)c2)CCC1 [Compound 380, 2-(4-(1-((4-methyl-4H-1,2,4-triazol-3-yl)methyl)cyclobutyl)-6-((pyridin-4-ylmethyl)amino)pyridin-2-yl)-6-(((1-methylcyclobutyl)amino)methyl)-4-(trifluoromethyl)isoindolin-1-one hydrochloride] | 0.089 | 0.099 | (101x) |
| Cn1cnnc1[C@H](F)C1(c2cccc(N3Cc4c(cc(CN5CC6(CCO6)C5)cc4C(F)(F)F)C3=O)c2)COC1 [Compound 139, (R)-6-(1-oxa-6-azaspiro[3.3]heptan-6-ylmethyl)-2-(3-(3-(fluoro(4-methyl-4H-1,2,4-triazol-3-yl)methyl)oxetan-3-yl)phenyl)-4-(trifluoromethyl)isoindolin-1-one] | 0.23 | 0.64 | 2.8x |
| Cn1cnnc1CC1(c2cccc(N3Cc4c(cc(CNC5(C)CCC5)cc4C(F)(F)F)C3=O)c2)COC1 [Compound 301, 2-(3-(3-((4-methyl-4H-1,2,4-triazol-3-yl)methyl)oxetan-3-yl)phenyl)-6-(((1-methylcyclobutyl)amino)methyl)-4-(trifluoromethyl)isoindolin-1-one] | 0.012 | 0.01 | (0.86x) |
| Cc1ncn(CC2(c3cccc(N4Cc5c(cc(CN6CCN(C)C[C@@H]6C(C)C)cc5C(F)(F)F)C4=O)c3)COC2)n1 [Compound 255, (S)-6-((2-isopropyl-4-methylpiperazin-1-yl)methyl)-2-(3-(3-((3-methyl-1H-1,2,4-triazol-1-yl)methyl)oxetan-3-yl)phenyl)-4-(trifluoromethyl)isoindolin-1-one] | 20 | ≥ 20 | (1.0x) |
| Cn1cnnc1[C@@H](F)C1(c2cccc(N3Cc4c(cc(CN5CC(C)(O)C5)cc4C(F)(F)F)C3=O)c2)CC1 (single isomer, unassigned) [Compound 29] | 0.12 | 0.23 | 1.8x |
| CN(C)CCNc1cc(C2(Cc3nncn3C)CCC2)cc(N2Cc3c(cc(CNC4(C)CCC4)cc3C(F)(F)F)C2=O)n1 [Compound 337, 2-(6-((2-(dimethylamino)ethyl)amino)-4-(1-((4-methyl-4H-1,2,4-triazol-3-yl)methyl)cyclobutyl)pyridin-2-yl)-6-(((1-methylcyclobutyl)amino)methyl)-4-(trifluoromethyl)isoindolin-1-one] | 2.4 | 1.1 | (0.45x) |
| Cn1cnnc1[C@H](F)C1(c2cccc(N3Cc4c(cc([C@H](N)CC5CC5)cc4C(F)(F)F)C3=O)c2)COC1 [Compound 390, 6-((R)-1-amino-2-cyclopropylethyl)-2-(3-(3-((R)-fluoro(4-methyl-4H-1,2,4-triazol-3-yl)methyl)oxetan-3-yl)phenyl)-4-(trifluoromethyl)isoindolin-1-one] | 0.096 | 0.011 | (1.1x) |
